{"source": "patent US5532231A", "about": "“Antibacterial agent” (priority 1994, dated 1996)", "key": {"E. coli ESS Kan^r [1]": {"system": "E. coli ESS Kan^r", "assay": "Paper disc filter antibiotic assay (zone of inhibition)", "assay_type": "cell-based, Escherichia coli", "settings": "paper disc", "method": "Escherichia coli ESS Kan^r, is a kanamycin resistant strain of E. coli ESS, derived by transducing E. coli ESS with P1:TnV, Kan^r. This strain was used for the standard antibiotic assays.\nLB Kan medium was solidified by 1.5% Bacto agar (Difco). For the antibiotic assay, Nutrient Broth agar plates were used. NB medium is 0.8% Nutrient Broth (Difco) containing 0.5% NaCl (Merck). NB was solidified by 1.8% Bacto agar (Difco). The NB plates were overlaid by 3.5 ml NB soft agar (0.9% Bacto agar) mixed with 0.1 ml E. coli ESS Kan^r overnight culture.\n(§1) Antibiotic activity against E. coli ESS Kan^r was determined by the paper disc filter assay (Leo et al., 1945). Unknown quantities of antibiotic TA or Focusin, dissolved in ethanol, saline or NB were applied to paper disc filters (6 mm diameter; Schleicher and Schull). After allowing the ethanol to evaporate in the hood for about 15 mins, the dry filters were placed on nutrient broth plates which had been overlaid with an overnight culture of E. coli ESS Kan^r as described above.\n(§2) The diameter of the zone of inhibition was recorded after 18 hours in incubation at 37° C. The concentration of the antibacterial agents were determined from a standard inhibition curve prepared with known quantities of TA and Focusin."}, "[2]": {"assay_type": "physicochemical", "method": "Focusin and TA at concentrations of 3 mg/ml were diluted either in ethanol or in saline containing 1% ethanol to yield a final concentration in each case of 30 μg/ml. The solutions were mixed at 37° C. for one hour under shaking, and then were centrifuged at 5000 g for 10 minutes. Several samples were taken from the supernatants of the tubes and were applied on disc filters in order to determine the concentration of the antibacterial agents in the saline and ethanol solutions, by the paper disc bioassay method."}, "E. coli ESS Kan^r [3]": {"system": "E. coli ESS Kan^r", "assay": "Sensitivity to combined exposure to light and air (remaining activity by paper disc bioassay)", "assay_type": "physicochemical, Escherichia coli", "method": "as §1, §2\n100 ng of TA and Focusin dissolved in ethanol were applied to paper filters and allowed to dry in a hood for 15 mins. The filters were then exposed to light from a fluorescent lamp in the hood; the distance from the lamp to the filters was approximately 40 cm. The controls were placed in the dark under a plastic box within the hood.\nAfter exposure of the filters to the light for varying periods of time, the remaining activity of the agents was measured by the paper disc bioassay and the results are shown in the following Table 1: […]"}, "E. coli ESS [4]": {"system": "E. coli ESS", "assay": "Antimicrobial spectrum, liquid media, viable cell count", "assay_type": "cell-based, Escherichia coli", "settings": "saturating concentrations", "method": "(§3) Saturated solutions of TA and Focusin were prepared by adding 1.14 μg TA and 7 μg Focusin to 1 ml LB (final conc. of 1% ethanol). About 10^5 bacteria of various strains were then added. The control was bacteria in the same medium with no antibacterial agents. The bacteria were introduced at 37° C. with shaking at 100 rpm. When the control became turbid, viable cell count was performed on LB agar plates. Growth inhibition is presented as percentage of the no antibiotic control."}, "E. coli K-12": {"system": "E. coli K-12", "assay": "Antimicrobial spectrum, liquid media, viable cell count", "assay_type": "cell-based, Escherichia coli", "settings": "saturating concentrations", "method": "as §3"}, "Bacillus subtilis": {"system": "Bacillus subtilis", "assay": "Antimicrobial spectrum, liquid media, viable cell count", "assay_type": "cell-based", "settings": "saturating concentrations", "method": "as §3"}, "Citrobacter diversus": {"system": "Citrobacter diversus", "assay": "Antimicrobial spectrum, liquid media, viable cell count", "assay_type": "cell-based", "settings": "saturating concentrations", "method": "as §3"}, "Enterobacter": {"system": "Enterobacter", "assay": "Antimicrobial spectrum, liquid media, viable cell count", "assay_type": "cell-based", "settings": "saturating concentrations", "method": "as §3"}, "Erwinia herbicola": {"system": "Erwinia herbicola", "assay": "Antimicrobial spectrum, liquid media, viable cell count", "assay_type": "cell-based", "settings": "saturating concentrations", "method": "as §3"}, "Helicobacter pilori": {"system": "Helicobacter pilori", "assay": "Antimicrobial spectrum, liquid media, viable cell count", "assay_type": "cell-based", "settings": "saturating concentrations", "method": "as §3"}, "Klebsiella Gr47": {"system": "Klebsiella Gr47", "assay": "Antimicrobial spectrum, liquid media, viable cell count", "assay_type": "cell-based", "settings": "saturating concentrations; hospital strain", "method": "as §3"}, "Klebsiella pneumoniae": {"system": "Klebsiella pneumoniae", "assay": "Antimicrobial spectrum, liquid media, viable cell count", "assay_type": "cell-based", "settings": "saturating concentrations; hospital strain", "method": "as §3"}, "Klebsiella sp": {"system": "Klebsiella sp", "assay": "Antimicrobial spectrum, liquid media, viable cell count", "assay_type": "cell-based", "settings": "saturating concentrations; hospital strain", "method": "as §3"}, "Proteus vulgaris": {"system": "Proteus vulgaris", "assay": "Antimicrobial spectrum, liquid media, viable cell count", "assay_type": "cell-based", "settings": "saturating concentrations", "method": "as §3"}, "Providencia strautii": {"system": "Providencia strautii", "assay": "Antimicrobial spectrum, liquid media, viable cell count", "assay_type": "cell-based", "settings": "saturating concentrations", "method": "as §3"}, "Pseudomonas aeruginosa": {"system": "Pseudomonas aeruginosa", "assay": "Antimicrobial spectrum, liquid media, viable cell count", "assay_type": "cell-based", "settings": "saturating concentrations", "method": "as §3"}, "Salmonella thyphimurium": {"system": "Salmonella thyphimurium", "assay": "Antimicrobial spectrum, liquid media, viable cell count", "assay_type": "cell-based", "settings": "saturating concentrations", "method": "as §3"}, "Serratia marcescens": {"system": "Serratia marcescens", "assay": "Antimicrobial spectrum, liquid media, viable cell count", "assay_type": "cell-based", "settings": "saturating concentrations", "method": "as §3"}, "Staphylococcus albus": {"system": "Staphylococcus albus", "assay": "Antimicrobial spectrum, liquid media, viable cell count", "assay_type": "cell-based", "method": "as §3"}, "Staphylococcus aureas": {"system": "Staphylococcus aureas", "assay": "Antimicrobial spectrum, liquid media, viable cell count", "assay_type": "cell-based, Staphylococcus aureus", "settings": "saturating concentrations", "method": "as §3"}, "Mycobacteria smegmatis": {"system": "Mycobacteria smegmatis", "assay": "Antimicrobial spectrum, liquid media, viable cell count", "assay_type": "cell-based, Mycobacterium smegmatis", "settings": "saturating concentrations", "method": "as §3"}, "E. coli ESS [5]": {"system": "E. coli ESS", "assay": "Bactericidal effect when bound to mouse tissues", "assay_type": "cell-based, Escherichia coli", "settings": "4 μg TA or 20 μg Focusin, 5 h", "method": "Two mice were sacrificed by exposure to ether. The bladder, eyes, intestines, lungs, heart, teeth, liver, spleen and kidneys were removed by dissection. Each experimental set consisted of three test tubes. A piece of each tissue type was placed in each of the three test tubes. The amount of tissue per tube were as follows: bladder 1/3, eye 1/2, intestine 1 cm, lung 1/2, heart 1/3, fang tooth 1/2, liver 1/3, spleen 1/3 and kidney 1/2. One test tube contained a control tissue which was treated only with the solvent used for dissolving the antibacterial agent, usually 50% ethanol. The second and third test tubes contained tissues were treated with 4 μg TA or 20 μg Focusin, respectively.\nFollowing application of the antibacterial agent or the control solution, the tissues were allowed to dry in a hood for 30 mins., and then placed in the test tubes.\nOne milliliter of sterile saline was then added to each test tube and the tubes were then incubated with shaking (50 rpm) at 37° C. for one hour. The amount of antibacterial agent that was released to the saline was measured following chloroform extraction by the disc filter assay.\nThe tissues were then transferred to exponentially growing cultures of E. coli ESS in NB at a concentration of 10^5 cells/ml. Incubation was at 37° C. and continued for 5 hours, following which the number of viable cells was checked."}, "[6]": {"system": "Gram-positive and Gram-negative bacteria", "settings": "literature; cited from earlier work"}, "[7]": {"system": "severe gingivitis and plaque", "settings": "humans; cited from earlier work"}}, "data": [{"smiles": "CCCC1OC(=O)C(C)CC(C)CCCCC(=O)CCCC(CC)C=CC=C(COC)CCC(O)C(O)CC(O)CNC1=O", "note": "(stereo not drawn) [TA, reference compound]", "values": [{"measurement": "amount giving an inhibition zone of 11 mm", "setting": "E. coli ESS Kan^r [1]; zone 11 mm", "value": 64, "unit": "ng"}, {"measurement": "amount required to obtain a zone of inhibition of about 2 mm", "setting": "E. coli ESS Kan^r [1]; zone about 2 mm", "value": 7.5, "unit": "ng"}, {"measurement": "solubility in ethanol", "setting": "[2]", "value": "completely soluble"}, {"measurement": "solubility in saline", "setting": "[2]; saline with 1% ethanol, 1 h", "value": "about 1.14 μg/ml"}, {"measurement": "activity after exposure to light and air", "setting": "E. coli ESS Kan^r [3]; 0 hours", "value": 100, "unit": "%"}, {"measurement": "activity after exposure to light and air", "setting": "E. coli ESS Kan^r [3]; 1 hour", "value": 70, "unit": "%"}, {"measurement": "activity after exposure to light and air", "setting": "E. coli ESS Kan^r [3]; 4 hours", "value": 63, "unit": "%"}, {"measurement": "activity after exposure to light and air", "setting": "E. coli ESS Kan^r [3]; 6 hours", "value": 26, "unit": "%"}, {"measurement": "activity after exposure to light and air", "setting": "E. coli ESS Kan^r [3]; 8 hours", "value": 21, "unit": "%"}, {"measurement": "activity after exposure to light and air", "setting": "E. coli ESS Kan^r [3]; 20 hours", "value": 19, "unit": "%"}, {"measurement": "degradation at combined exposure to light and air", "setting": "E. coli ESS Kan^r [3]; after 20 hours", "value": 81, "unit": "%"}, {"measurement": "degradation at combined exposure to light and air", "setting": "E. coli ESS Kan^r [3]; after one hour, 60 min", "value": 30, "unit": "%"}, {"measurement": "killing", "setting": "E. coli ESS [4]", "value": 100, "unit": "%"}, {"measurement": "killing", "setting": "E. coli K-12", "value": 100, "unit": "%"}, {"measurement": "killing", "setting": "Bacillus subtilis", "value": 100, "unit": "%"}, {"measurement": "killing", "setting": "Citrobacter diversus", "value": 100, "unit": "%"}, {"measurement": "killing", "setting": "Enterobacter", "value": 100, "unit": "%"}, {"measurement": "killing", "setting": "Erwinia herbicola", "value": 100, "unit": "%"}, {"measurement": "killing", "setting": "Helicobacter pilori", "value": 100, "unit": "%"}, {"measurement": "killing", "setting": "Klebsiella Gr47", "value": 100, "unit": "%"}, {"measurement": "killing", "setting": "Klebsiella pneumoniae", "value": 100, "unit": "%"}, {"measurement": "killing", "setting": "Klebsiella sp", "value": 100, "unit": "%"}, {"measurement": "killing", "setting": "Proteus vulgaris", "value": 100, "unit": "%"}, {"measurement": "killing", "setting": "Providencia strautii", "value": 100, "unit": "%"}, {"measurement": "killing", "setting": "Pseudomonas aeruginosa", "value": 0, "unit": "%"}, {"measurement": "killing", "setting": "Salmonella thyphimurium", "value": 60, "unit": "%"}, {"measurement": "killing", "setting": "Serratia marcescens", "value": 100, "unit": "%"}, {"measurement": "incubation time after which the strain began to show sensitivity", "setting": "Staphylococcus albus; saturating concentrations", "value": "> 46", "unit": "h"}, {"measurement": "killing", "setting": "Staphylococcus albus; saturating concentrations (TA)", "value": 83, "unit": "%"}, {"measurement": "killing", "setting": "Staphylococcus aureas", "value": 100, "unit": "%"}, {"measurement": "killing", "setting": "Mycobacteria smegmatis", "value": 0, "unit": "%"}, {"measurement": "Inhibition % by the treated tissue", "setting": "E. coli ESS [5]; bladder", "value": 100, "unit": "%"}, {"measurement": "Inhibition % by the treated tissue", "setting": "E. coli ESS [5]; heart", "value": 100, "unit": "%"}, {"measurement": "Inhibition % by the treated tissue", "setting": "E. coli ESS [5]; intestine", "value": 99, "unit": "%"}, {"measurement": "Inhibition % by the treated tissue", "setting": "E. coli ESS [5]; kidney", "value": 100, "unit": "%"}, {"measurement": "Inhibition % by the treated tissue", "setting": "E. coli ESS [5]; liver", "value": 96, "unit": "%"}, {"measurement": "Inhibition % by the treated tissue", "setting": "E. coli ESS [5]; lungs", "value": 100, "unit": "%"}, {"measurement": "Inhibition % by the treated tissue", "setting": "E. coli ESS [5]; spleen", "value": 100, "unit": "%"}, {"measurement": "Inhibition % by the treated tissue", "setting": "E. coli ESS [5]; teeth", "value": 100, "unit": "%"}, {"measurement": "growth inhibition (in words)", "setting": "[6]", "value": "capable of inhibiting growth of a variety of Gram-positive and Gram-negative bacteria"}, {"measurement": "mode of growth inhibition (in words)", "setting": "[6]", "value": "lysis of growing bacteria as a result of blocking of cell wall synthesis"}, {"measurement": "effect on gingivitis and plaque (in words)", "setting": "[7]", "value": "to treat severe gingivitis and to reduce plaque in humans"}]}]}
